Assay [1] deals with PTZ-induced seizures in mice. Description: Pentylenetetrazol (PTZ)-induced seizure in mice model. The assay is classed as in vivo, CD-1 mice. As to the method: Four to five week old male CD-1 mice of about 20 g (Janvier; Le Genest St Isle—France) were acclimatized to the environment for one week before the experiment.
They were group-housed (5-10 mice per cage) and maintained in a room with controlled temperature (21-22° C.) and a reversed light-dark cycle (12 h/12 h; lights on: 17:30-05:30; lights off: 05:30-17:30) with food and water available ad libitum.
PTZ-induced seizures in mice are an accepted in vivo model for the screening of antiepileptic drugs. PTZ is a blocker of the chloride ionophore complex to the GABAA receptor that has […] effects after repeated or single dose administration and also affects several neurotransmitter systems, such as the GABAergic and glutamatergic systems. Seizures were induced by administration of 100 mg/kg (subcutaneously) of PTZ. Levetiracetam (500 mg/kg), used as an internal positive control, was administered 60 min before the PTZ injection. Drugs of the invention were injected per os 2 h before PTZ administration. Acamprosate calcium (two molecules of acamprosate for a calcium ion) was tested at three different doses.
As already stated, 100 mg/kg PTZ were injected subcutaneously and the animals were then observed for 1 h after injection. The latencies for clonic seizures, tonic seizures, and death were monitored. Clonic seizures consist in rhythmic contractions of forelimbs and/or hindlimbs. Tonic seizures consist in rigid extension of the forelimbs and/or hindlimbs.
Analysis of variance (ANOVA) was performed on the result data. Fisher's Protected Least Significant Difference was used for pairwise comparisons. Statistical difference was assessed by Fisher's exact test. p values≤0.05 were considered significant.

Assay [2] concerns neuronal cortical cells. Description: Glutamate toxicity assay on primary cortical neuron cells (neurite network, neurofilament immunostaining). The assay is classed as cell-based, rat. The following applies: for protection against glutamate toxicity, drug alone: torasemide or baclofen alone at the same doses as in the combination of FIG. 4 (400 nM, 2 μM), not significant. As to the method:
Rat cortical neurons were cultured as described by Singer et al.. Briefly, pregnant female rats of 15 days gestation were killed by cervical dislocation (Rats Wistar) and the fetuses were removed from the uterus. The cortex was removed and placed in ice-cold medium of Leibovitz (L15) containing 2% of penicillin 10,000 U/mL and streptomycin 10 mg/mL and 1% of bovine serum albumin (BSA). Cortices were dissociated by trypsin for 20 min at 37° C. (0.05%). The reaction was stopped by the addition of Dulbecco's modified Eagle's medium (DMEM) containing DNasel grade II and 10% of foetal calf serum (FCS). Cells were then mechanically dissociated by 3 serial passages through a 10 mL pipette and centrifuged at 515×g for 10 min at +4° C. The supernatant was discarded and the pellet of cells was re-suspended in a defined culture medium consisting of Neurobasal supplemented with B27 (2%), L-glutamine (0.2 mM), 2% of PS solution and 10 ng/mL of BDNF. Viable cells were counted in a Neubauer cytometer using the trypan blue exclusion test. The cells were seeded at a density of 30 000 cells/well in 96 well-plates (wells were pre-coated with poly-L-lysine (10 μg/mL)) and were cultured at +37° C. in a humidified air (95%)/CO2 (5%) atmosphere.
After 12 days of neuron culture, drugs of the candidate combinations were solved in culture medium (+0.1% DMSO). Candidate drugs or drug combinations were then pre-incubated with neurons for 1 h before the glutamate injury. Glutamate was added for 20 min, to a final concentration of 40 μM in presence of candidate drugs or drug combinations. At the end of the incubation, medium was changed with medium with candidate combination but without glutamate. The culture was fixed 24 h after glutamate injury. MK801 (Dizocilpinehydrogen maleate, 77086-22-7-20 μM) was used as a positive control.
After permeabilization with saponin (Sigma), cells were blocked for 2 h with PBS containing 10% goat serum, then the cells were incubated with mouse monoclonal primary antibody against Neurofilament antibody (NF, Sigma).
Nuclei of cells were labeled by a fluorescent marker (Hoechst solution, SIGMA), and neurite network quantified. Six wells per condition were used to assess neuronal survival in 3 different cultures.

The mark [3] stands for this setting: high dose of acamprosate calcium.
[4] abbreviates: low dose of acamprosate calcium.
The mark [5] stands for this setting: baclofen 400 nM alone or acamprosate 1.6 nM alone, FIG. 3.
Setting [6] is: baclofen 2 μM alone or torasemide 400 nM alone, FIG. 4.
Where [7] appears, read: cinacalcet 64 μM alone or mexiletine 25.6 μM alone, FIG. 1.
Where [8] appears, read: levetiracetam 500 mg/kg 60 min before PTZ.
Setting [9] is: sulfisoxazole 6.8 nM alone or torasemide 400 nM alone, FIG. 2.

Entries after “also recorded” stand apart in the source; their conditions may differ.

Consider `CC(=O)NCCCS(=O)(=O)[O-].CC(=O)NCCCS(=O)(=O)[O-].[Ca+2]` [acamprosate calcium], for which the “latency to clonic seizure (in words)” value in assay [1] (acamprosate calcium 0.032 mg/kg, PTZ 100 mg/kg s.c., not shown) is recorded as “increase”; in assay [1] (acamprosate calcium 0.5 mg/kg per os 2 h before PTZ 100 mg/kg s.c., FIG. 6, p<0.05 vs vehicle), “significant increase”; in assay [1] (acamprosate calcium 0.5 mg/kg per os 2 h before PTZ 100 mg/kg s.c., FIG. 6, p<0.05 vs vehicle, listed as Acamprosate calcium), “efficient in increasing”. Further, the “reduction of prevalence of death” value in assay [1] (setting [3]) came out at 38%; in assay [1] (setting [4]), 25%. In addition, the “reduction of prevalence of mice with clonic seizure” value is reported as 30% in assay [1] (setting [3]) and 20% in assay [1] (setting [4]). Moreover, the “reduction of prevalence of mice with tonic seizure” value in assay [1] (setting [3]) is given as 38%; in assay [1] (setting [4]), 25%.
With `CC(=O)NCCCS(=O)(=O)O` [acamprosate, Acamprosate], the “effect on glutamate intoxication, drug alone” value (from here on “effect”) in assay [2] (setting [5]) is given as “no statistically significant effect”.
On to `NCC(CC(=O)O)c1ccc(Cl)cc1` (stereo not shown) [baclofen, Baclofen], for which the “effect” value is “no statistically significant effect” in assay [2] (setting [5]) and “no significant results; also recorded: no statistically significant effect” in assay [2] (setting [6]). Besides, the “protection against glutamate toxicity, drug alone” value in assay [2] came to 13%.
For `C[C@@H](NCCCc1cccc(C(F)(F)F)c1)c1cccc2ccccc12` [cinacalcet, Cinacalcet], the “effect” value in assay [2] (setting [7]) is “no protection at all; also recorded: no significant effect”.
`CC[C@@H](C(N)=O)N1CCCC1=O` [levetiracetam]: in assay [1] (setting [8]), the “PTZ-induced death (in words)” value is on record as “reversed” and the “PTZ-induced tonic seizure (in words)” value is recorded as “reversed”. Besides, the “time to clonic seizure (in words)” value in assay [1] (levetiracetam 500 mg/kg 60 min before PTZ 100 mg/kg s.c., FIG. 6) is “no significant effect”.
In the case of `Cc1cccc(C)c1OCC(C)N` (stereo not shown) [mexiletine, Mexiletine], the “effect” value in assay [2] (setting [7]) was “no protection at all; also recorded: no significant effect”.
Turning to `Cc1noc(NS(=O)(=O)c2ccc(N)cc2)c1C` [sulfisoxazole, Sulfisoxazole], the “effect” value in assay [2] (setting [9]) is “no significant effect”.
Take `Cc1cccc(Nc2ccncc2S(=O)(=O)NC(=O)NC(C)C)c1` [torasemide, Torasemide]: the “effect” value in assay [2] (setting [6]) is given as “no significant results; also recorded: no statistically significant effect”; in assay [2] (setting [9]), “no significant effect”. Moreover, in assay [2], the “protection against glutamate toxicity, drug alone” value was determined as 8%.

These data come from US20210069135A1, “THERAPEUTIC APPROACHES FOR TREATING EPILEPSY AND RELATED DISORDERS THROUGH REDUCTION OF EPILEPTOGENESIS” (PHARNEXT, priority 2012, published 2021).
